Measured values reported in patent US9603804B2, “Solid pharmaceutical composition” (KYORIN PHARMACEUTICAL CO., LTD., priority 2013, dated 2017).

How the values were obtained:
[1] = Solubility in water at 20° C. of acidic substances; type: physicochemical; details: MW={C/(100+C)}×100, C = mass (g) of solute dissolved in 100 g of water
Procedure: The “solubility in water” herein is a value obtained by calculation using the following equation (A) on the basis of the mass (g) of a solute that is dissolved in 100 g of water. MW={C/(100+C)}×100 (A) In the equation (A), MW represents the solubility (%) in water and C represents the mass (g) of a solute that is dissolved in 100 g of water.

[2] = pH measurement of acidic/basic substances (2.5% liquid, pH meter); type: physicochemical; details: 50 mg substance dissolved or suspended in 1,950 μL of water (concentration: 2.5%)

Structure (SMILES)	SOLUBILITY IN WATER (20° C.) [1] [%]	pH [2]
O=C(O)CC(O)C(=O)O (racemic) [DL-MALIC ACID, DL-malic acid]	36.0	2.1
O=C(O)CC(O)(CC(=O)O)C(=O)O [ANHYDROUS CITRIC ACID, citric acid anhydride]	–	2.1
O=C([O-])CC(O)(CC(=O)[O-])C(=O)O.[Na+].[Na+] [DIBASIC SODIUM CITRATE, dibasic sodium citrate]	–	5.1
O=C(O)/C=C/C(=O)O [FUMARIC ACID, fumaric acid]	0.63	2.2
O=C(O)C(O)C(O)C(=O)O [L-(+)TARTARIC ACID, L-(+)tartaric acid]	–	1.9
N[C@@H](CC(=O)O)C(=O)O [L-ASPARTIC ACID, L-aspartic acid]	–	2.8
Cl.N[C@@H](CCC(=O)O)C(=O)O [L-GLUTAMIC ACID HYDROCHLORIDE, L-glutamic acid hydrochloride]	–	1.5
N[C@@H](CCC(=O)O)C(=O)O [L-GLUTAMIC ACID, L-glutamic acid]	–	3.0
O=C([O-])CC(O)(CC(=O)O)C(=O)O.[Na+] [MONOBASIC SODIUM CITRATE, monobasic sodium citrate]	–	3.7
O=C([O-])CC(O)(CC(=O)[O-])C(=O)[O-].[Na+].[Na+].[Na+] [SODIUM CITRATE, sodium citrate]	–	8.2
